Results reported in PubChem BioAssay (NCI).
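Test compounds were applied to cells in 96-well plates for 48 hours at 5 doses. TGI marks complete inhibition of growth.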

Legend:
Experiment in all cases: inhibition of tumour cell growth, NCI panel, 48 h
[1] = test system: DLD-1 colon
[2] = test system: HCC-2998 colon
[3] = test system: HCT-116 colon
[4] = test system: HOP-18 NSCLC
[5] = test system: HOP-62 NSCLC
[6] = test system: KM20L2 colon
[7] = test system: M19-MEL melanoma
[8] = test system: SNB-78 CNS
[9] = test system: U251 CNS
[10] = test system: XF 498 CNS

SMILES	TGI [1] [µM]	TGI [2] [µM]	TGI [3] [µM]	TGI [4] [µM]	TGI [5] [µM]	TGI [6] [µM]	TGI [7] [µM]	TGI [8] [µM]	TGI [9] [µM]	TGI [10] [µM]
O=C1OC(c2ccccc2)=N/C1=C/N1CCCC1C(=O)O (centres undefined)	> 100	> 100	> 100	> 100	> 100	> 100	> 100	> 100	> 100	> 100
CC(=O)[C@H]1CCC2[C@@H]3CC=C4C(O)C(OS(=O)(=O)O)CC[C@]4(C)C3CC[C@@]21C (some centres undefined)	> 100	> 100	> 100	> 100	> 100	> 100	> 100	> 100	> 100	
c1ccc(COc2cccc3cccnc23)cc1	> 100	> 100	> 100	> 100	> 100	> 100	> 100			> 100
O=C(C=P(c1ccccc1)(c1ccccc1)c1ccccc1)c1ccc(-c2ccc(F)cc2F)cc1		4.12	8.81		15.5				13.9	
O=C(NC/C=C/Br)NC1CCNc2ccccc21 (centres undefined)		59	> 100		> 100				> 100	
O=C(NCc1ccccc1)c1c(O)c2ccccc2[nH]c1=O		> 100	> 100		> 100				> 100	
CCCCCCCCC[n+]1cccc(C2C(C(=O)OCC)=C(C)NC(C)=C2C(=O)OCC)c1		21.1	30.5		28.7				12.6	
c1ccc(CNc2ncnc3n[nH]nc23)cc1		> 100	> 100		> 100				> 100	
CCOC(=O)c1cc(-c2ccn(C(C)=O)c2)c(-c2cc(C)co2)[nH]1		> 100	> 100		> 100				> 100	
C=C1CC(OC)(C(O)C(=O)N[C@H]2OCO[C@H]3C2O[C@H](C[C@H](O)COC)C(C)(C)C3OC)O[C@H](C)[C@@H]1C (some centres undefined)		> 0.00772	> 0.00772	> 0.00772	> 0.00772	> 0.00772	> 0.00772	> 0.00772	> 0.00772	> 0.00772
Cc1nnc(CC#N)n1NC(=O)CC#N		> 100	> 100		> 100				> 100	
COC(=O)/C=C\C(C#N)(C#N)N=Cc1ccsc1		29.6	3.57		30.9				29.7	
CC1(C)O[C@@H](CP(c2cccc3ccccc23)c2cccc3ccccc23)[C@H](CP(c2cccc3ccccc23)c2cccc3ccccc23)O1		> 100	> 100		> 100				> 100	
COC(=O)C(C(=O)OC)C1CC(=O)c2c(Br)sc(Br)c21 (centres undefined)		27.4	30.9		46.3				29.8	
COc1cc(C2(C)SCCCS2)c(I)c(OC)c1OC	> 100	> 100	> 100	> 100	> 100	> 100	> 100	> 100	> 100	> 100
COC(=O)C1[C@H](C(=O)OC)C1(Br)CBr (some centres undefined)		> 100	> 100		> 100				> 100	
CC1(O)C(=O)OC2CC([C@]3(O)CCC4[C@@H]5C[C@H]6O[C@]67[C@@H](O)C=CC(=O)[C@]7(C)C5CC[C@@]43C)C1(C)C2 (some centres undefined)		> 100	23.1		> 100				> 72.6	
